{
  "source": "patent US8859464B2",
  "about": "“Nitrogen containing isethionic acid salts in field ready spray and tank mixes” (Huntsman Petrochemical L LC, priority 2009, dated 2014)",
  "tested_on": "target weed species",
  "assay": "Water conditioning efficacy in greenhouse evaluation of isopropylamine glyphosate spray tank solutions in hard water",
  "assay_type": "in vivo",
  "conditions": "aqueous spray tank solutions of isopropylamine glyphosate, standard hard water, absence of any surfactant, compared with ammonium sulfate",
  "method": "Isethionic acid (Example 1) and ten neutralization products of isethionic acid (Examples 2-11) were used to treat aqueous spray tank solutions of isopropylamine glyphosate in order to measure the water conditioning efficacy of isethionic acid and the other isethionates. Isethionic acid was neutralized with sodium (Examples 2, 6, and 7), ammonia (Examples 3-5) and tallow amine ethoxylates (Examples 8-11—SURFONIC® T-5 surfactant). These candidates were evaluated against the standard agricultural water conditioner, ammonium sulfate in an aqueous tank mix of isopropylamine glyphosate (Control Example). Specifically, the candidates were tested for their ability to condition water as a function of the suppression of water hardness inhibition of pesticides, such as glyphosate. All evaluations were run in the absence of any surfactant in standard hard water as defined by the World Health Organization standard hard waters. The evaluations were run in greenhouse conditions over a variety of plant species, including determining injury to crop species. The reported data was percent control of target weed species and percent injury to crop species. All evaluations (except for one industry standard) were conducted in the absence of any surfactant.",
  "data": [
    {"smiles": "O=S(=O)(O)CCO", "note": "[isethionic acid, Isethionic Acid]", "values": [
      {"measurement": "water conditioning efficacy (suppression of water hardness inhibition of glyphosate)", "result": "functioned at a level comparable to that of the agricultural industry standard ammonium sulfate"}
    ]}
  ]
}
